# Laboratory results reported in patent US10973784B2, “Compositions and methods for treating Alzheimer's disease and Parkinson's disease” (Biotie Therapies, Inc., priority 2016, dated 2021).
# Values joined by “and” are separate entries in the source; they are usually repeats but may differ in a detail not shown here. Equal values may be shown once. Read-outs that look alike come from different tables or passages of the source.
# Tests used:
# 5-HT2C receptor = target: T1, 5-HT2C receptor (Homo sapiens, UniProt P28335); conditions: cited from earlier work
# T1 sequence (P28335 33-458): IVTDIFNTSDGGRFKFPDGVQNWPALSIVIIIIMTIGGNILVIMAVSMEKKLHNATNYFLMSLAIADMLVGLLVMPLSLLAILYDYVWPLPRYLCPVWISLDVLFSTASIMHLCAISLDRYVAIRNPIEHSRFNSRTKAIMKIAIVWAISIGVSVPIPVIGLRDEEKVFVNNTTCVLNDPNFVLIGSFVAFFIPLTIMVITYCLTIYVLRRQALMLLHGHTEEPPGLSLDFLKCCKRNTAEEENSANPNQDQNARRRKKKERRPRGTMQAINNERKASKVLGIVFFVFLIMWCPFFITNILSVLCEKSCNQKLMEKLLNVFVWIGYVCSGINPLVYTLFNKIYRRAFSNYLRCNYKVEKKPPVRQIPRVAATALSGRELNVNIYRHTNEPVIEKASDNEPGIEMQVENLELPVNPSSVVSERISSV
# 5-HT2A receptor = 5-HT2A receptor (Homo sapiens, UniProt P28223); conditions: cited from earlier work
# [1] = Pharmacokinetic analysis of SYN120 tablets, single oral dose (Example 8); format: in vivo, human; conditions: for half-life / Tmax / AUC(0-t) / AUC(0-inf) / Cmax: human, plasma
# Protocol: Pharmacokinetic (PK) analysis was performed on 42 subjects (36 males; 6 females) who received SYN120 oral tablets. In this study, subjects received a single oral dose of SYN120 at one of the following doses: 2 mg; 10 mg; 30 mg; 100 mg; 300 mg; and 600 mg. The SYN120 oral tablets used in this study were formulated for immediate release at tablet strengths of 2 mg, 10 mg, and 50 mg. The tablets were formulated using lactose monohydrate, corn starch, sodium starch glycolate, povidone, sodium lauryl sulfate, magnesium stearate, and the coating agent Opadry Yellow. Blood samples were collected at predose and 0.5, 1, 1.5, 2, 3, 4, 6, 8, 12, 16, 24, 32, 36, 48, and 72 hours postdose. During the treatments at 100 mg and higher, the protocol was amended to include an additional blood sample on Study Day 7 (nominal time of 151 hours). Following oral administration, SYN120 absorption was rapid and plasma levels were measurable in all subjects at the first time point (0.5 hours).
# Table 14 below provides a summary of the mean PK parameters of plasma SYN120 for all doses.
# [2] = female, oral, 100 mg single dose, females, arithmetic mean
# [3] = female, single oral dose 100 mg (females), Cohort E, geometric mean
# [4] = single oral dose 2 mg, Cohort A, geometric mean
# [5] = single oral dose 10 mg, Cohort B, geometric mean
# [6] = single oral dose 30 mg, Cohort C, geometric mean
# [7] = single oral dose 300 mg, Cohort F, geometric mean
# [8] = single oral dose 600 mg, Cohort G, geometric mean
# [9] = male, oral, 100 mg single dose, males, arithmetic mean
# [10] = male, single oral dose 100 mg (males), Cohort D, geometric mean
# [11] = single oral dose 2 mg, Cohort A, arithmetic mean ±SD
# [12] = single oral dose 10 mg, Cohort B, arithmetic mean ±SD
# [13] = single oral dose 30 mg, Cohort C, arithmetic mean ±SD
# [14] = single oral dose 100 mg (females), Cohort E, arithmetic mean ±SD
# [15] = single oral dose 100 mg (males), Cohort D, arithmetic mean ±SD
# [16] = single oral dose 300 mg, Cohort F, arithmetic mean ±SD
# [17] = single oral dose 600 mg, Cohort G, arithmetic mean ±SD
# Sequence of 5-HT2A receptor (P28223 whole entry): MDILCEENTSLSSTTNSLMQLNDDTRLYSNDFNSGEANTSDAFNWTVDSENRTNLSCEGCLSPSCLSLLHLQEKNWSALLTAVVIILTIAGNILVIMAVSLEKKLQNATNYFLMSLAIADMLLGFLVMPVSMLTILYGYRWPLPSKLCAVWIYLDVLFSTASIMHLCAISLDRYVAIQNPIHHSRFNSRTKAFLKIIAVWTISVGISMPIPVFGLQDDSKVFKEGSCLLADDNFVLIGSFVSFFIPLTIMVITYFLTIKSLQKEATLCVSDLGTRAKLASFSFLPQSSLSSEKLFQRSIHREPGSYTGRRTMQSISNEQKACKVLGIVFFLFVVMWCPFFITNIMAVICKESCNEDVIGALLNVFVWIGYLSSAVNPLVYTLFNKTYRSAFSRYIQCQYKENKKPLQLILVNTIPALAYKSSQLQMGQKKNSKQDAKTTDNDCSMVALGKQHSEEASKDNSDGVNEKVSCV
smiles,measurement,setting,value
NC(=O)NC[C@@H]1CCCc2cc(S(=O)(=O)c3cccc(F)c3)ccc21 [SYN120],pKi,5-HT2C receptor,8.1
same,pKi,5-HT2A receptor,7.8
same,half-life,"[1]; both sexes, oral, range across single-dose treatment groups, read-out: mean apparent elimination half-life",8.45 to 12.4 h
same,Tmax,"[1]; both sexes, oral, single doses of 100 mg and above, read-out: Tmax estimates",~4 h
same,AUC(0-t),"[1]; female, oral, 100 mg, 100 mg single dose, females, arithmetic mean, read-out: AUC0-24",4670 ± 2990 ng·h/mL
same,AUC(0-t),"[1]; female, oral, 100 mg, 100 mg single dose, females, arithmetic mean, read-out: AUC0-t",5960 ± 3650 ng·h/mL
same,AUC(0-inf),[1]; [2],5980 ± 3660 ng·h/mL
same,Cmax,[1]; [2],532 ± 218 ng/mL
same,AUC(0-t),"[1]; female, po, 100 mg, single oral dose 100 mg (females), Cohort E, geometric mean, read-out: AUC0-24",4000 ng·h/mL
same,AUC(0-t),"[1]; female, po, 100 mg, single oral dose 100 mg (females), Cohort E, geometric mean, read-out: AUC0-t",5100 ng·h/mL
same,half-life,"[1]; female, single oral dose 100 mg (females), Cohort E, arithmetic mean ±SD, read-out: t1/2 (converted)",12.4 h
same,AUC(0-inf),[1]; [3],5120 ng·h/mL
same,Cmax,[1]; [3],498 ng/mL
same,Tmax,"[1]; female, single oral dose 100 mg (females), Cohort E, median, read-out: Tmax",2.51 h
same,half-life,"[1]; oral, general statement, read-out: elimination half-life (t1/2)",8 to 12 h
same,Tmax,"[1]; oral, single dose 2 to 30 mg, on average, read-out: Tmax",~2 h
same,AUC(0-t),"[1]; po, 2 mg, single oral dose 2 mg, Cohort A, geometric mean, read-out: AUC0-24",118 ng·h/mL
same,AUC(0-t),"[1]; po, 2 mg, single oral dose 2 mg, Cohort A, geometric mean, read-out: AUC0-t",139 ng·h/mL
same,AUC(0-t),"[1]; po, 10 mg, single oral dose 10 mg, Cohort B, geometric mean, read-out: AUC0-24",351 ng·h/mL
same,AUC(0-t),"[1]; po, 10 mg, single oral dose 10 mg, Cohort B, geometric mean, read-out: AUC0-t",384 ng·h/mL
same,AUC(0-t),"[1]; po, 30 mg, single oral dose 30 mg, Cohort C, geometric mean, read-out: AUC0-24",1540 ng·h/mL
same,AUC(0-t),"[1]; po, 30 mg, single oral dose 30 mg, Cohort C, geometric mean, read-out: AUC0-t",1750 ng·h/mL
same,AUC(0-t),"[1]; po, 300 mg, single oral dose 300 mg, Cohort F, geometric mean, read-out: AUC0-24",21300 ng·h/mL
same,AUC(0-t),"[1]; po, 300 mg, single oral dose 300 mg, Cohort F, geometric mean, read-out: AUC0-t",27400 ng·h/mL
same,AUC(0-t),"[1]; po, 600 mg, single oral dose 600 mg, Cohort G, geometric mean, read-out: AUC0-24",27600 ng·h/mL
same,AUC(0-t),"[1]; po, 600 mg, single oral dose 600 mg, Cohort G, geometric mean, read-out: AUC0-t",42500 ng·h/mL
same,half-life,"[1]; single oral dose 2 mg, Cohort A, arithmetic mean ±SD, read-out: t1/2 (converted)",11.4 ± 5.11 h
same,AUC(0-inf),[1]; [4],146 ng·h/mL
same,Cmax,[1]; [4],11.8 ng/mL
same,Tmax,"[1]; single oral dose 2 mg, Cohort A, median, read-out: Tmax",2.02 h
same,half-life,"[1]; single oral dose 10 mg, Cohort B, arithmetic mean ±SD, read-out: t1/2 (converted)",8.45 ± 2.31 h
same,AUC(0-inf),[1]; [5],389 ng·h/mL
same,Cmax,[1]; [5],48.7 ng/mL
same,Tmax,"[1]; single oral dose 10 mg, Cohort B, median, read-out: Tmax",1.76 h
same,half-life,"[1]; single oral dose 30 mg, Cohort C, arithmetic mean ±SD, read-out: t1/2 (converted)",8.92 ± 1.39 h
same,AUC(0-inf),[1]; [6],1770 ng·h/mL
same,Cmax,[1]; [6],179 ng/mL
same,Tmax,"[1]; single oral dose 30 mg, Cohort C, median, read-out: Tmax",2.26 h
same,half-life,"[1]; single oral dose 300 mg, Cohort F, arithmetic mean ±SD, read-out: t1/2 (converted)",9.58 ± 3.46 h
same,AUC(0-inf),[1]; [7],27400 ng·h/mL
same,Cmax,[1]; [7],1730 ng/mL
same,Tmax,"[1]; single oral dose 300 mg, Cohort F, median, read-out: Tmax",3.53 h
same,half-life,"[1]; single oral dose 600 mg, Cohort G, arithmetic mean ±SD, read-out: t1/2 (converted)",12 ± 4.81 h
same,AUC(0-inf),[1]; [8],42900 ng·h/mL
same,Cmax,[1]; [8],2080 ng/mL
same,Tmax,"[1]; single oral dose 600 mg, Cohort G, median, read-out: Tmax",4.51 h
same,AUC(0-t),"[1]; male, oral, 100 mg, 100 mg single dose, males, arithmetic mean, read-out: AUC0-24",6470 ± 3330 ng·h/mL
same,AUC(0-t),"[1]; male, oral, 100 mg, 100 mg single dose, males, arithmetic mean, read-out: AUC0-t",7980 ± 4800 ng·h/mL
same,AUC(0-inf),[1]; [9],8060 ± 4880 ng·h/mL
same,Cmax,[1]; [9],623 ± 180 ng/mL
same,AUC(0-t),"[1]; male, po, 100 mg, single oral dose 100 mg (males), Cohort D, geometric mean, read-out: AUC0-24",5870 ng·h/mL
same,AUC(0-t),"[1]; male, po, 100 mg, single oral dose 100 mg (males), Cohort D, geometric mean, read-out: AUC0-t",7010 ng·h/mL
same,half-life,"[1]; male, single oral dose 100 mg (males), Cohort D, arithmetic mean ±SD, read-out: t1/2 (converted)",11 h
same,AUC(0-inf),[1]; [10],7060 ng·h/mL
same,Cmax,[1]; [10],604 ng/mL
same,Tmax,"[1]; male, single oral dose 100 mg (males), Cohort D, median, read-out: Tmax",4 h
same,CL/F,[1]; [11],18.8 ± 15.2 L/h
same,Vs/F,[1]; [11],264 ± 191 L
same,CL/F,[1]; [12],29.0 ± 15.0 L/h
same,Vs/F,[1]; [12],379 ± 283 L
same,CL/F,[1]; [13],19.2 ± 9.58 L/h
same,Vs/F,[1]; [13],253 ± 149 L
same,CL/F,[1]; [14],22.5 L/h and 22.5 ± 11.9 L/h
same,Vs/F,[1]; [14],448 L and 448 ± 500 L
same,CL/F,[1]; [15],15.8 L/h and 15.8 ± 7.56 L/h
same,Vs/F,[1]; [15],227 L and 227 ± 94.2 L
same,CL/F,[1]; [16],11.7 ± 4.81 L/h
same,Vs/F,[1]; [16],154 ± 57.3 L
same,CL/F,[1]; [17],15.7 ± 7.96 L/h
same,Vs/F,[1]; [17],246 ± 97.6 L
